# PMC6713165, “Identification of 1H-pyrazolo[3,4-b]pyridine derivatives as potent ALK-L1196M inhibitors” (Journal of Enzyme Inhibition and Medicinal Chemistry, 2019)
# Key:
# H2228 cells = assay: Apoptosis analysis (annexin V-FITC/PI, FACS), H2228; assay type: cell-based; conditions: H2228, 48 h, in words
# Description: After 24–48 h following compound treatment, cells were harvested and stained with annexin V (1:500 diluted in annexin V buffer) for 30 min and PI (1:200) solution for 30 min. 1 × 10^6 cells were analysed using flow cytometric analysis. For the cell cycle arrest analysis, cells were harvested by trypsinisation and fixed with 70% ethanol overnight at −20 °C. The next day, cells were harvested and washed with cold DPBS at 500 × g.
# Parental Ba/F3 cells = assay: Anti-proliferation assay (CTG), parental Ba/F3; assay type: cell-based; conditions: Mus musculus, BaF3, 72 h, with IL-3, mean ± SD of three independent experiments, read-out: GI50 Ba/F3 cell lines Parental
# Description: (§1) ALK wt-TEL, ALK L1196M-TEL transformed Ba/F3 and H2228 cell lines were cultured in RPMI1640 (Welgene, # LM011-01). […] Parental Ba/F3 cells were cultured in RPMI1640 media supplemented with 10% foetal bovine serum and 1% penicillin/streptomycin solution in the presence of IL-3. The cells were maintained in a humidified atmosphere containing 5% CO2 at 37 °C.
# (§2) Cells (ALK wt-TEL, ALK L1196M-TEL and Parental Ba/F3: 1 × 10^4, H2228: 5 × 10^3) were plated in 96 well tissue culture plates. Each compound was added to each well at 10 dose points of three-fold serial dilution in DMSO. After treatment with each compound for 72 h, CTG assay solution (Promega, # G7572) was added to each well.
# [1] = tested on: ALK autophosphorylation and STAT3, ERK, PLC-gamma phosphorylation in ALK wt-TEL Ba/F3, ALK L1196M-TEL Ba/F3 and H2228 cell lines; assay: Western blot of ALK autophosphorylation and downstream signalling; assay type: cell-based; conditions: in words
# Description: Cells were harvested and lysed using IP buffer containing 50 mM HEPES (pH 7.4), 1% Triton X-100, 2 mM EDTA, 150 mM NaCl, 2.5 mM NaF, 5 mM Na3VO4, protease inhibitor cocktail tablet (Roche, # 11–878-580–001). The protein concentration was determined by Bradford assay. Proteins were separated using SDS-PAGE and transferred onto NC membrane. The membranes were blocked using 5% skim milk in TBS-T buffer. The rabbit polyclonal antibody against phospho-ALK (Tyr1604, # 3341), phospho-ERK1/2 (Thr202/Tyr204, # 8544), phospho- PLC-gamma (Tyr783, # 14008), phospho-STAT3 (Tyr705, # 4074) and cleaved caspase3 (# 9661) were purchased from Cell Signalling Technologies, and PARP1/2 (H-250, # sc-7150) and anti-β-actin (# sc-47778) antibody was obtained from Santa Cruz Biotechnology. All primary antibodies were diluted in TBS-T at 1:1000. Each primary antibody was incubated overnight at 4 °C, followed by the secondary antibody treatment for 1 h at room temperature. Secondary antibodies were purchased from genDEPOT. Proteins were detected using ECL substrate, and then exposed to X-ray film.
# [2] = tested on: ALK L1196M-TEL Ba/F3 cells; assay: Anti-proliferation assay (CTG), ALK L1196M-TEL Ba/F3; assay type: cell-based
# Description: as §1, §2
# Lyn = Lyn (Homo sapiens, UniProt P07948); assay: Biochemical kinase assay, Lyn
# Sequence of Lyn (P07948 whole entry): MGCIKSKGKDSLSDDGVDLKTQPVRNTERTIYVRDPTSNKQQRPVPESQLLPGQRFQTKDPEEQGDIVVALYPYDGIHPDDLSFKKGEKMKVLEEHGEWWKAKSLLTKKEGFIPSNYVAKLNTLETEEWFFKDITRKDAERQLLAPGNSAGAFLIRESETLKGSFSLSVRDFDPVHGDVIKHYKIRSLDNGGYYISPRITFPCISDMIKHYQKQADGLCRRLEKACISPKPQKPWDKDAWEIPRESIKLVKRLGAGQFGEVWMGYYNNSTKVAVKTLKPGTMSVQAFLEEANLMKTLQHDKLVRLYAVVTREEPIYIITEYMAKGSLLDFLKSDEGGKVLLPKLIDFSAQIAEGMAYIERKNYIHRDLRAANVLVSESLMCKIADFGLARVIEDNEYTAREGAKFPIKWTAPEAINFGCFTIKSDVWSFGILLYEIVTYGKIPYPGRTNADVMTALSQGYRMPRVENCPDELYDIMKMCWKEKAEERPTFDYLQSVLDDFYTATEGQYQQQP
# Description: (§3) Biochemical kinase assay was performed by methods previously reported. Kinase reactions of all test compounds except 10g were carried out at 10 µM ATP. Kinase reaction of 10g was performed at three different concentrations of ATP (10/50/100 µM).
# [3] = biological target: IRK (insulin receptor kinase) (Homo sapiens, UniProt P06213); assay: Biochemical kinase assay, IRK
# Sequence of IRK (insulin receptor kinase) (P06213 28-1382): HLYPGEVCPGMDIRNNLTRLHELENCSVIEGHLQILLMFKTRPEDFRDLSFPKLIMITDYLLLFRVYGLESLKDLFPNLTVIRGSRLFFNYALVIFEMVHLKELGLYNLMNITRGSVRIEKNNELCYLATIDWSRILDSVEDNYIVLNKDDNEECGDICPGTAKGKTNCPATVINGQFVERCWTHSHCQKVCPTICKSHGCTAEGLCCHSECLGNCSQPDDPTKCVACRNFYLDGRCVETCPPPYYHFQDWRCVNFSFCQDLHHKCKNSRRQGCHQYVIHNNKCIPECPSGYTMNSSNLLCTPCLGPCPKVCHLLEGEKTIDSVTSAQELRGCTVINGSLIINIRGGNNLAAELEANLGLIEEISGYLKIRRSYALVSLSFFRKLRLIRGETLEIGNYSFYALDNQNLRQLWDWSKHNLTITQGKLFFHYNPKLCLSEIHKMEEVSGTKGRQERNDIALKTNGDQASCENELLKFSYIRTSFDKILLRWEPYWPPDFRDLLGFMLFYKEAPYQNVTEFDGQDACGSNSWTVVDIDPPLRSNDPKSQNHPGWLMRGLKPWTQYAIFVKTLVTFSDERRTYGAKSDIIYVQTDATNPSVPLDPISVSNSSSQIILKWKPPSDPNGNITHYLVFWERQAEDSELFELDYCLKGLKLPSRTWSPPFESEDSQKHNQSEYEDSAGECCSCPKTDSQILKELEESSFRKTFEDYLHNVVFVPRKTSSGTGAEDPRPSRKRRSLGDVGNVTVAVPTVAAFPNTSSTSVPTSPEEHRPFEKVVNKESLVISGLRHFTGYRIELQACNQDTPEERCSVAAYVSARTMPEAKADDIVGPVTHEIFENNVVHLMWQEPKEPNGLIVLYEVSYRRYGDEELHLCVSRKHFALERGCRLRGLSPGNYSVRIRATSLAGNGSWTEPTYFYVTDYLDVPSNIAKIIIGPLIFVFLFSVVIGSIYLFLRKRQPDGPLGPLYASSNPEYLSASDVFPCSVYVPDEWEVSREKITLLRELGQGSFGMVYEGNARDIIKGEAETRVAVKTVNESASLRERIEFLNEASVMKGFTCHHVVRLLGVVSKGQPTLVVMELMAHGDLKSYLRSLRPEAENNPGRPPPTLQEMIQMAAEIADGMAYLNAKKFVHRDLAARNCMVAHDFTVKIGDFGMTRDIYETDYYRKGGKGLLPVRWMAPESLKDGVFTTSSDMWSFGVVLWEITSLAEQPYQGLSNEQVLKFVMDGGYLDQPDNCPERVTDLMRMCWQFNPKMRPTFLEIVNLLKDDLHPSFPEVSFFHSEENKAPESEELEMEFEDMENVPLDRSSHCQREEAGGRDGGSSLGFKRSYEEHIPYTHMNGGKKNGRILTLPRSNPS
# Description: as §3
compound,measurement,setting,value
"CN1CCN(c2ccc(C(=O)Nc3n[nH]c4ncc(S(=O)(=O)c5cccc(F)c5)cc34)cc2)CC1 [10g, N-(5-((3-Fluorophenyl)sulfonyl)-1H-pyrazolo[3,4-b]pyridin-3-yl)-4–(4-methylpiperazin-1-yl)benzamide]",apoptosis induction (FACS),H2228 cells,induces apoptosis in H2228 cells in a dose dependent fashion
same,GI50,Parental Ba/F3 cells,3500 ± 1130 nM
same,ALK autophosphorylation (western blot),"[1]; 1 and 10 µM, 2 h, ALK wt-TEL Ba/F3, ALK L1196M-TEL Ba/F3 and H2228 cell lines",effectively attenuates
same,"phosphorylation levels of STAT3, ERK and PLC-gamma (western blot)","[1]; 2 h, dose-dependent",moderately suppressed
same,inhibition of ALK autophosphorylation compared with crizotinib,[1]; ALK L1196M-TEL Ba/F3 cells,more effective than crizotinib
same,GI50,"[2]; Mus musculus, BaF3, 72 h, CTG, mean ± SD of three independent experiments, read-out: GI50 Ba/F3 cell lines ALKL1196M-TEL",129 ± 20 nM
same,differential cytotoxicity against ALK-L1196M Ba/F3 cells vs. parental Ba/F3 cells compared with crizotinib,[2]; in words,much more favourable differential cytotoxicity
same,IC50,Lyn,33 nM
same,IC50,[3],404 nM
